From publication PMC6193035, “Novel small molecules affecting cell membrane as potential therapeutics for avian pathogenic Escherichia coli” (Scientific Reports, 2018)
≈ marks a conversion by molar mass, not a printed value. Marks after values point to notes of the source that are not given here.

Key:
APEC O1 = test: MIC and MBC determination in M63 media; format: cell-based; details: Escherichia coli
APEC O15 = test: MIC and MBC determination in M63 media; format: cell-based; details: Escherichia coli
APEC O35 = test: MIC and MBC determination in M63 media; format: cell-based; details: Escherichia coli
APEC O115 = test: MIC and MBC determination in M63 media; format: cell-based; details: Escherichia coli
APEC O78-53 = test: MIC and MBC determination in M63 media; format: cell-based; details: Escherichia coli; APEC O78-53, M63 media
Description: One microlitre SM of each concentration was transferred to each well of a 96-well plate containing 100 µL of the 0.05 OD600 adjusted APEC O78 culture in M63 media. Growth was monitored in Sunrise - Absorbance microplate reader as described above. MIC was indicated by lowest concentration of SM with non-elevated OD600 measurement. MBC was determined by absence of APEC growth on LB agar plate following subculture. […] Two independent experiments were conducted.

APEC O2-211 = test: MIC and MBC determination in M63 media; format: cell-based; details: Escherichia coli; APEC O2-211, M63 media
APEC O78 [1] = test: Bacterial cytological profiling by confocal microscopy; format: cell-based, Escherichia coli; details: 2X MBC, 2 h
Description: Confocal microscopy was used for bacterial cytological profiling (BCP) to identify the cellular pathways targeted by SMs as described previously. […] After incubation, treated cultures were centrifuged, washed, and resuspended in 100 µL PBS. FM4-64 (#T13320 Molecular Probes/Invitrogen) (1 µg/mL) and SYTO-9 (#S34854 Molecular Probes/Invitrogen) (5 µM) were added to the bacterial cultures and incubated for 45 mins at room temperature with shaking at 150 rpm. Cultures were then centrifuged, washed, and resuspended in PBS to 1/10th volume of the original cultures.

APEC O78 [2] = test: Crystal violet (CV) uptake assay; format: cell-based, Escherichia coli; details: 2X MBC, 30 mins; P < 0.05, Student's t-test
Description: (§1) Membrane permeability assays (crystal violet (CV) uptake and loss of 260/280 nm absorbing materials) were conducted as described previously. […] CV uptake was measured using the formula: (OD DMSO − OD SM/OD DMSO × 100). Two independent experiments in duplicates were conducted.

APEC O78 [3] = test: Loss of 260/280 nm absorbing materials assay; format: cell-based, Escherichia coli; details: 2X MBC, 1 h
Description: as §1

[4] = test system: intracellular APEC O1 in Caco-2 cells; test: Intracellular survival assay; format: cell-based, Escherichia coli
Description: (§2) Intracellular survival assay was conducted as described previously[28],[29] to determine the effect of cidal SMs on APEC survival in phagocytic (HD11, THP-1) and non-phagocytic (Caco-2) cells. Briefly, mid-logarithmic phase grown APEC O78, O1, and O2 were washed and adjusted to 1 × 10^7 CFU/mL in cell culture incomplete media (no FBS and antibiotics). One-hundred microlitres adjusted APEC suspension was added at multiplicity of infection (MOI) 10 to wells of 96-well cell culture plate containing cultured macrophage (HD11, THP-1) and epithelial cells (Caco-2) and incubated for 1 h and 3 h, respectively. […] The cells were then lysed with 100 µL of 0.1% Triton X-100 for 5 mins, serially diluted, and plated on LB agar plate to enumerate viable bacteria. The intracellular bacteria in SMs treated wells were compared with DMSO (1%) treated wells. Two independent experiments in duplicate wells for each concentration of SMs were conducted.

[5] = test system: intracellular APEC O1 in HD11 cells; test: Intracellular survival assay; format: cell-based, Escherichia coli
Description: as §2

[6] = test system: intracellular APEC O1 in THP-1 cells; test: Intracellular survival assay; format: cell-based, Escherichia coli
Description: as §2

[7] = test system: intracellular APEC O2 in Caco-2 cells; test: Intracellular survival assay; format: cell-based, Escherichia coli
Description: as §2

[8] = test system: intracellular APEC O2 in HD11 cells; test: Intracellular survival assay; format: cell-based, Escherichia coli
Description: as §2

[9] = test system: intracellular APEC O2 in THP-1 cells; test: Intracellular survival assay; format: cell-based, Escherichia coli
Description: as §2

[10] = test system: intracellular APEC O78 in Caco-2 cells; test: Intracellular survival assay; format: cell-based, Escherichia coli
Description: as §2

[11] = test system: intracellular APEC O78 in HD11 cells; test: Intracellular survival assay; format: cell-based, Escherichia coli
Description: as §2

[12] = test system: intracellular APEC O78 in THP-1 cells; test: Intracellular survival assay; format: cell-based, Escherichia coli
Description: as §2

[13] = test system: intracellular APEC O78, O2, and O1 in infected Caco-2, HD11, and THP1 cells; test: Intracellular survival assay, statements over all serotypes and cells; format: cell-based, Escherichia coli; details: Escherichia coli, 6 h, O78, O2 and O1; Caco-2, HD11, THP-1; 6 h; read-out: concentration clearing intracellular APEC
Description: as §2

CC1CCCN(CCC(=O)c2ccc(Br)cc2)C1 (stereo not drawn) [SM1]
MBC (APEC O1): 250 µM (≈ 77.6 µg/mL)
MIC (APEC O1): 200 µM (≈ 62 µg/mL)
MBC (APEC O15): 250 µM (≈ 77.6 µg/mL)
MIC (APEC O15): 200 µM (≈ 62 µg/mL)
MBC (APEC O35): 200 µM (≈ 62 µg/mL)
MIC (APEC O35): 200 µM (≈ 62 µg/mL)
MBC (APEC O115): 200 µM (≈ 62 µg/mL)
MIC (APEC O115): 200 µM (≈ 62 µg/mL)
MBC (APEC O78-53): 200 µM (≈ 62 µg/mL)
MIC (APEC O78-53): 200 µM (≈ 62 µg/mL)
MBC (APEC O2-211): 200 µM (≈ 62 µg/mL)
MIC (APEC O2-211): 200 µM (≈ 62 µg/mL)
cytological profile (FM4-64 / SYTO-9 staining) (APEC O78 [1]): filamentous or short rods (spheroplasts) morphology (PG synthesis inhibitors)
uptake of crystal violet compared with DMSO (APEC O78 [2]): increased the uptake of crystal violet
260 nm absorbing materials in supernatant compared with DMSO (APEC O78 [3]): significantly (P < 0.05, Student’s t-test) increased
280 nm absorbing materials in supernatant compared with DMSO (APEC O78 [3]): significantly (P < 0.05, Student’s t-test) increased
Absorbance 280 nm of treated supernatant (APEC O78 [3]; DMSO 2.58, superscript a P < 0.05 vs DMSO): 3.08^a
Absorbance 260 nm of treated supernatant (APEC O78 [3]; DMSO 3.77, superscript a P < 0.05 vs DMSO): 4.00^a
minimal effective concentration ([4]; Escherichia coli, O1, Caco-2, 6 h treatment, read-out: SMs intracellular APEC clearance concentration): > 400 µM
concentration at which the SM significantly (P < 0.01) reduced intracellular APEC (superscript of t-statistic) ([4]; O1, Caco-2, 6 h): b (1X MIC)
minimal effective concentration ([5]; Escherichia coli, O1, HD11, 6 h treatment, read-out: SMs intracellular APEC clearance concentration): 400 µM
concentration at which the SM significantly (P < 0.01) reduced intracellular APEC (superscript of t-statistic) ([5]; O1, HD11, 6 h): a (0.5X MIC)
minimal effective concentration ([6]; Escherichia coli, O1, THP-1, 6 h treatment, read-out: SMs intracellular APEC clearance concentration): 400 µM
intracellular APEC clearance concentration as multiple of MIC (superscript) ([6]; O1, THP-1): b (2X MIC)
concentration at which the SM significantly (P < 0.01) reduced intracellular APEC (superscript of t-statistic) ([6]; O1, THP-1, 6 h): a (0.5X MIC)
minimal effective concentration ([7]; Escherichia coli, O2, Caco-2, 6 h treatment, read-out: SMs intracellular APEC clearance concentration): > 400 µM
concentration at which the SM significantly (P < 0.01) reduced intracellular APEC (superscript of t-statistic) ([7]; O2, Caco-2, 6 h): b (1X MIC)
minimal effective concentration ([8]; Escherichia coli, O2, HD11, 6 h treatment, read-out: SMs intracellular APEC clearance concentration): 200 µM
intracellular APEC clearance concentration as multiple of MIC (superscript) ([8]; O2, HD11): a (1X MIC)
concentration at which the SM significantly (P < 0.01) reduced intracellular APEC (superscript of t-statistic) ([8]; O2, HD11, 6 h): a (0.5X MIC)
minimal effective concentration ([9]; Escherichia coli, O2, THP-1, 6 h treatment, read-out: SMs intracellular APEC clearance concentration): 200 µM
concentration at which the SM significantly (P < 0.01) reduced intracellular APEC (superscript of t-statistic) ([9]; O2, THP-1, 6 h): b (1X MIC)
minimal effective concentration ([10]; Escherichia coli, O78, Caco-2, 6 h treatment, read-out: SMs intracellular APEC clearance concentration): 200 µM
intracellular APEC clearance concentration as multiple of MIC (superscript) ([10]; O78, Caco-2): a (1X MIC)
concentration at which the SM significantly (P < 0.01) reduced intracellular APEC (superscript of t-statistic) ([10]; O78, Caco-2, 6 h): a (0.5X MIC)
minimal effective concentration ([11]; Escherichia coli, O78, HD11, 6 h treatment, read-out: SMs intracellular APEC clearance concentration): 200 µM
intracellular APEC clearance concentration as multiple of MIC (superscript) ([11]; O78, HD11): a (1X MIC)
concentration at which the SM significantly (P < 0.01) reduced intracellular APEC (superscript of t-statistic) ([11]; O78, HD11, 6 h): a (0.5X MIC)
minimal effective concentration ([12]; Escherichia coli, O78, THP-1, 6 h treatment, read-out: SMs intracellular APEC clearance concentration): 200 µM
intracellular APEC clearance concentration as multiple of MIC (superscript) ([12]; O78, THP-1): a (1X MIC)
concentration at which the SM significantly (P < 0.01) reduced intracellular APEC (superscript of t-statistic) ([12]; O78, THP-1, 6 h): a (0.5X MIC)
minimal effective concentration [13]: ≥ 100 µM
